# According to ChEMBL document CHEMBL5620403, “Design, synthesis, activity and molecular dynamics studies of 1,3,4-thiadiazole derivatives as selective allosteric inhibitors of SHP2 for the treatment of cancer” (Eur J Med Chem, 2023):
# Columns and labels:
# [1] = target: T1, Tyrosine-protein phosphatase non-receptor type 11 (Homo sapiens, UniProt Q06124); experiment: Inhibition of full length wild type recombinant human IRS-1 peptide activated SHP2 (1 to 525 residues) using DIPMUP as substrate preincubated for 30 mins followed by substrate addition and measured after 30 mins by fluorescence based analysis
# T1 sequence (Q06124 whole entry): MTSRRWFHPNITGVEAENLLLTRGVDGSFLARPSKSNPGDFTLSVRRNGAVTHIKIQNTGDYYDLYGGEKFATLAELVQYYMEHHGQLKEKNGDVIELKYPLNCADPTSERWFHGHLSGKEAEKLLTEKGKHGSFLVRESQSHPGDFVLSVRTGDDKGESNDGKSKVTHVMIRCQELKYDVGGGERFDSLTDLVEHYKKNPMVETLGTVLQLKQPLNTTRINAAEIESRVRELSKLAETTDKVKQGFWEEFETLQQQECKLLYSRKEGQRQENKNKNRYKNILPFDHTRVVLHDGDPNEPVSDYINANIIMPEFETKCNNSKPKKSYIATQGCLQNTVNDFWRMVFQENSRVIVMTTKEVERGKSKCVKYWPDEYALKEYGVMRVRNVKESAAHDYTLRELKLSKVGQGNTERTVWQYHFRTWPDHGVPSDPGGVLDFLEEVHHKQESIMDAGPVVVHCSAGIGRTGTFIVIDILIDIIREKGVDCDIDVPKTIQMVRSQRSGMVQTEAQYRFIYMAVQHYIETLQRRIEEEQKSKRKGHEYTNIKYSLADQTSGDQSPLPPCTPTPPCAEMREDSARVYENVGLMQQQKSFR
# NCI-H358 = experiment: Antiproliferative activity against human NCI-H358 cells assessed as inhibition of cell growth measured after 72 hrs by CCK8 method; type: functional, cell-based; settings: NCI-H358, 72 h
# [2] = target: Tyrosine-protein phosphatase non-receptor type 6 (Homo sapiens, UniProt P29350); experiment: Inhibition of full length recombinant human SHP1 (1 to 570 residues) using DIPMUP as substrate preincubated for 30 mins followed by substrate addition and measured after 30 mins by fluorescence based analysis
# Chain of Tyrosine-protein phosphatase non-receptor type 6 (P29350 whole entry, the tested form may be a part): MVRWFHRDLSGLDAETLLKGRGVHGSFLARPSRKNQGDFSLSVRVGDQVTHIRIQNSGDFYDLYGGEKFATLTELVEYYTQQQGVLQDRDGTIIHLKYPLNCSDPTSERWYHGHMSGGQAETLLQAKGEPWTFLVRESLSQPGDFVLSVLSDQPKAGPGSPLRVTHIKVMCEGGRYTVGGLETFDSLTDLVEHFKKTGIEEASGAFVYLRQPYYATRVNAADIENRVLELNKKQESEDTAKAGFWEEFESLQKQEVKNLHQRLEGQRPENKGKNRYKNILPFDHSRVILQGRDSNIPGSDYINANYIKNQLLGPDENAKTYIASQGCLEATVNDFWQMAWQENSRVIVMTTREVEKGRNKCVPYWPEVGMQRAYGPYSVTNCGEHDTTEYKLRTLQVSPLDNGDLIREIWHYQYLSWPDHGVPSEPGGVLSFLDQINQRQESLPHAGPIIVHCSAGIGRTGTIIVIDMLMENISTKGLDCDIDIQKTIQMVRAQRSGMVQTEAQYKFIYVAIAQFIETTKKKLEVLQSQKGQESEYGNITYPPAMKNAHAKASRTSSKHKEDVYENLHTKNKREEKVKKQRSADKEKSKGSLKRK
# MV4-11 [3] = experiment: Antiproliferative activity against human MV4-11 cells assessed as inhibition of cell growth measured after 72 hrs by CCK8 method; type: functional, cell-based; settings: MV4-11, 72 h
# A549 = experiment: Antiproliferative activity against human A549 cells assessed as inhibition of cell growth measured after 72 hrs by CCK8 method; type: functional, cell-based; settings: A549, 72 h
# [4] = target: T1, Tyrosine-protein phosphatase non-receptor type 11; experiment: Inhibition of recombinant human SHP2 PTPase activity (219 to 525 residues) using DIPMUP as substrate preincubated for 30 mins followed by substrate addition and measured after 30 mins by fluorescence based analysis
# MDA-MB-468 = experiment: Antiproliferative activity against human MDA-MB-468 cells assessed as inhibition of cell growth measured after 72 hrs by CCK8 method; type: functional, cell-based; settings: MDA-MB-468, 72 h
# MV4-11 [5] = experiment: Induction of apoptosis in human MV4-11 cells assessed as late apoptotic cells at 2.5 uM measured after 4 hrs by Annexin V-FITC/7-AAD staining based flow cytometric analysis (reference value: 4.03%); type: functional
# MV4-11 [6] = experiment: Induction of apoptosis in human MV4-11 cells assessed as early apoptotic cells at 5 uM measured after 4 hrs by Annexin V-FITC/7-AAD staining based flow cytometric analysis (reference value: 5.97%); type: functional
# MV4-11 [7] = experiment: Induction of apoptosis in human MV4-11 cells assessed as viable cells at 5 uM measured after 1 hrs by Annexin V-FITC/7-AAD staining based flow cytometric analysis (reference value: 90.1%); type: functional
# MV4-11 [8] = experiment: Induction of apoptosis in human MV4-11 cells assessed as viable cells at 5 uM measured after 4 hrs by Annexin V-FITC/7-AAD staining based flow cytometric analysis (reference value: 90.1%); type: functional
# MV4-11 [9] = experiment: Induction of apoptosis in human MV4-11 cells assessed as early apoptotic cells at 5 uM measured after 2 hrs by Annexin V-FITC/7-AAD staining based flow cytometric analysis (reference value: 4.28%); type: functional
# MV4-11 [10] = experiment: Induction of apoptosis in human MV4-11 cells assessed as early apoptotic cells at 5 uM measured after 1 hrs by Annexin V-FITC/7-AAD staining based flow cytometric analysis (reference value: 4.28%); type: functional
# MV4-11 [11] = experiment: Induction of apoptosis in human MV4-11 cells assessed as viable cells at 5 uM measured after 4 hrs by Annexin V-FITC/7-AAD staining based flow cytometric analysis (reference value: 89.1%); type: functional
# MV4-11 [12] = experiment: Induction of apoptosis in human MV4-11 cells assessed as early apoptotic cells at 5 uM measured after 4 hrs by Annexin V-FITC/7-AAD staining based flow cytometric analysis (reference value: 4.28%); type: functional
# MV4-11 [13] = experiment: Induction of apoptosis in human MV4-11 cells assessed as late apoptotic cells at 1.25 uM measured after 4 hrs by Annexin V-FITC/7-AAD staining based flow cytometric analysis (reference value: 4.03%); type: functional
# MV4-11 [14] = experiment: Induction of apoptosis in human MV4-11 cells assessed as late apoptotic cells at 5 uM measured after 2 hrs by Annexin V-FITC/7-AAD staining based flow cytometric analysis (reference value: 4.21%); type: functional
# MV4-11 [15] = experiment: Induction of apoptosis in human MV4-11 cells assessed as viable cells at 2.5 uM measured after 4 hrs by Annexin V-FITC/7-AAD staining based flow cytometric analysis (reference value: 89.1%); type: functional
# [16] = Inhibition of full length recombinant human SHP2 E76A mutant (1 to 525 residues) using DIPMUP as substrate preincubated for 30 mins followed by substrate addition and measured after 30 mins by fluorescence based analysis
# MV4-11 [17] = experiment: Induction of apoptosis in human MV4-11 cells assessed as necrotic cells at 5 uM measured after 4 hrs by Annexin V-FITC/7-AAD staining based flow cytometric analysis (reference value: 0.86%); type: functional
# MV4-11 [18] = experiment: Induction of apoptosis in human MV4-11 cells assessed as necrotic cells at 5 uM measured after 1 hrs by Annexin V-FITC/7-AAD staining based flow cytometric analysis (reference value: 0.92%); type: functional
# MV4-11 [19] = experiment: Induction of apoptosis in human MV4-11 cells assessed as necrotic cells at 2.5 uM measured after 4 hrs by Annexin V-FITC/7-AAD staining based flow cytometric analysis (reference value: 0.86%); type: functional
# MV4-11 [20] = experiment: Induction of apoptosis in human MV4-11 cells assessed as late apoptotic cells at 5 uM measured after 4 hrs by Annexin V-FITC/7-AAD staining based flow cytometric analysis (Rvb =4.21%); type: functional
# MV4-11 [21] = experiment: Induction of apoptosis in human MV4-11 cells assessed as necrotic cells at 1.25 uM measured after 4 hrs by Annexin V-FITC/7-AAD staining based flow cytometric analysis (reference value: 0.86%); type: functional
# MV4-11 [22] = experiment: Induction of apoptosis in human MV4-11 cells assessed as late apoptotic cells at 5 uM measured after 4 hrs by Annexin V-FITC/7-AAD staining based flow cytometric analysis (reference value: 4.03%); type: functional
# MV4-11 [23] = experiment: Induction of apoptosis in human MV4-11 cells assessed as early apoptotic cells at 1.25 uM measured after 4 hrs by Annexin V-FITC/7-AAD staining based flow cytometric analysis (reference value: 5.97%); type: functional
# MV4-11 [24] = experiment: Induction of apoptosis in human MV4-11 cells assessed as necrotic cells at 5 uM measured after 2 hrs by Annexin V-FITC/7-AAD staining based flow cytometric analysis (reference value: 0.92%); type: functional
# MV4-11 [25] = experiment: Induction of apoptosis in human MV4-11 cells assessed as late apoptotic cells at 5 uM measured after 1 hrs by Annexin V-FITC/7-AAD staining based flow cytometric analysis (reference value: 4.21%); type: functional
# MV4-11 [26] = experiment: Induction of apoptosis in human MV4-11 cells assessed as early apoptotic cells at 2.5 uM measured after 4 hrs by Annexin V-FITC/7-AAD staining based flow cytometric analysis (reference value: 5.97%); type: functional
# MV4-11 [27] = experiment: Induction of apoptosis in human MV4-11 cells assessed as necrotic cells at 5 uM measured after 4 hrs by Annexin V-FITC/7-AAD staining based flow cytometric analysis (reference value: 0.92%); type: functional
# MV4-11 [28] = experiment: Induction of apoptosis in human MV4-11 cells assessed as viable cells at 1.25 uM measured after 4 hrs by Annexin V-FITC/7-AAD staining based flow cytometric analysis (reference value: 89.1%); type: functional
# MV4-11 [29] = experiment: Induction of apoptosis in human MV4-11 cells assessed as viable cells at 5 uM measured after 2 hrs by Annexin V-FITC/7-AAD staining based flow cytometric analysis (reference value: 90.1%); type: functional
# BEAS-2B = experiment: Antiproliferative against human BEAS-2B cells assessed as inhibition of cell growth measured after 72 hrs by CCK8 method; type: toxicity, cell-based
# [30] = target: T1, Tyrosine-protein phosphatase non-receptor type 11; experiment: Inhibition of full length wild type recombinant human SHP2 (1 to 525 residues) using DIPMUP as substrate preincubated for 30 mins followed by substrate addition and measured after 30 mins by fluorescence based analysis
smiles,measurement,setting,value
CC1(N)CCN(c2nnc(-c3cccc(Cl)c3Cl)s2)CC1,IC50,[1],5.89 µM
COc1ccc2cc(-c3nnc(N4CCC(C)(N)CC4)s3)ccc2c1,IC50,[1],4.95 µM
CC1(N)CCN(c2nnc(-c3ccc4ccccc4c3)s2)CC1,IC50,[1],4.35 µM
CC1(N)CCN(c2nnc(Sc3ccccc3Cl)s2)CC1,IC50,[1],3.29 µM
NC1CCN(c2nnc(Sc3cccc(Cl)c3Cl)s2)CC1,IC50,[1],5.53 µM
CC1(N)CCN(c2nnc(Sc3cccc4cccnc34)s2)CC1,IC50,[1],4.51 µM
CC1(N)CCN(c2nnc(Sc3ccc(Cl)cc3Cl)s2)CC1,IC50,[1],5.43 µM
CC1(CN)CCN(c2nnc(Sc3cccc(Cl)c3Cl)s2)CC1,IC50,[1],1.12 µM
CC1(N)CCN(c2nnc(-c3cccc4ccccc34)s2)CC1,IC50,NCI-H358,32.9 µM
same,IC50,[2],> 50 µM
same,IC50,MV4-11 [3],3.32 µM
same,IC50,A549,19 µM
same,IC50,[4],> 50 µM
same,IC50,[1],4.35 µM
same,IC50,MDA-MB-468,5.42 µM
CC1(N)CCN(c2nnc(Sc3ccc(Cl)c(Cl)c3)s2)CC1,IC50,[1],4.42 µM
CC1(N)CCN(c2cnc(-c3cccc(Cl)c3Cl)c(N)n2)CC1,Activity,MV4-11 [5],5.06%
same,Activity,MV4-11 [6],5%
same,IC50,NCI-H358,> 50 µM
same,Activity,MV4-11 [7],90.4%
same,Activity,MV4-11 [8],87.7%
same,IC50,[2],> 50 µM
same,Activity,MV4-11 [9],4.73%
same,IC50,MV4-11 [3],2.78 µM
same,Activity,MV4-11 [10],4.27%
same,IC50,A549,> 50 µM
same,Activity,MV4-11 [11],89.3%
same,Activity,MV4-11 [12],6.98%
same,Activity,MV4-11 [13],4.24%
same,Activity,MV4-11 [14],4.35%
same,Activity,MV4-11 [15],88.2%
same,IC50,[16],1.43 µM
same,Activity,MV4-11 [17],0.85%
same,IC50,MDA-MB-468,31.8 µM
same,Activity,MV4-11 [18],1.05%
same,Activity,MV4-11 [19],0.79%
same,Activity,MV4-11 [20],4.58%
same,Activity,MV4-11 [21],0.66%
same,Activity,MV4-11 [22],4.89%
same,Activity,MV4-11 [23],4.94%
same,Activity,MV4-11 [24],0.95%
same,Activity,MV4-11 [25],4.32%
same,Activity,MV4-11 [26],5.95%
same,Activity,MV4-11 [27],0.77%
same,Activity,MV4-11 [28],88.1%
same,Activity,MV4-11 [29],90%
NCC1CCN(c2nnc(Sc3cccc(Cl)c3Cl)s2)CC1,IC50,[1],3.82 µM
CC1(N)CCN(c2nnc(Sc3cccc(Cl)c3Cl)s2)CC1,IC50,NCI-H358,8.64 µM
same,IC50,[2],> 50 µM
same,Activity,BEAS-2B,Toxic
same,IC50,[30],3.69 µM
same,IC50,MV4-11 [3],2.74 µM
same,IC50,A549,7.21 µM
same,IC50,[4],> 50 µM
same,IC50,[1],0.97 µM
same,IC50,MDA-MB-468,2.87 µM
CC1(N)CCN(c2nnc(Sc3ccc4ccccc4c3)s2)CC1,IC50,NCI-H358,13.9 µM
same,IC50,[2],> 50 µM
same,Activity,BEAS-2B,Toxic
same,IC50,[30],1.86 µM
same,IC50,MV4-11 [3],3.02 µM
same,IC50,A549,13.8 µM
same,IC50,[4],> 50 µM
same,IC50,[1],0.72 µM
same,IC50,MDA-MB-468,3.64 µM
CC1(N)CCN(c2nnc(Sc3ccccc3F)s2)CC1,IC50,[1],6.99 µM
